According to patent publication US9341616B2, “Sweet taste receptor chimeric proteins and use thereof” (AJINOMOTO CO., INC., priority 2014, dated 2016):
Residues, ends and D or L forms follow the SMILES beside them.

The compounds below were run against hT1R2/T1R3mosaicC (UniProt Q8TE23+Q925D8, A558R/A588V/A645S/A698V/A702T/A793V/A807V/C582S/C678S/D172E/D176A/D217E/E221Q/E725V/F541I/F612A/F622V/F695L/H728R/I617V/I706V/I740A/I803L/K555R/K565R/K818R/K827G/L560F/L684P/L735F/L823M/L825Q/M644L/M744T/N203E/N231A/N547G/N675D/P545F/P561R/P564S/Q195T/Q550E/Q611L/Q757R/Q795R/Q831P/R173L/R632Q/S168G/S205G/S228A/S576L/S595F/S610P/S635P/S637R/S679G/S717H/T199E/T542A/T663I/T694M/T813A/V197A/V198A/V573A/V584A/V718M/V723A/V729T/V738A/V805L/V812A/V821L/W599R/W676R/W824R/Y680C/Y794L). Details: Table 6; genes hT2/T1R3mC (hT1R2, T1R3mC); HEK293E cells.
Sequence of hT1R2/T1R3mosaicC (Q8TE23 20-839, stated change not applied): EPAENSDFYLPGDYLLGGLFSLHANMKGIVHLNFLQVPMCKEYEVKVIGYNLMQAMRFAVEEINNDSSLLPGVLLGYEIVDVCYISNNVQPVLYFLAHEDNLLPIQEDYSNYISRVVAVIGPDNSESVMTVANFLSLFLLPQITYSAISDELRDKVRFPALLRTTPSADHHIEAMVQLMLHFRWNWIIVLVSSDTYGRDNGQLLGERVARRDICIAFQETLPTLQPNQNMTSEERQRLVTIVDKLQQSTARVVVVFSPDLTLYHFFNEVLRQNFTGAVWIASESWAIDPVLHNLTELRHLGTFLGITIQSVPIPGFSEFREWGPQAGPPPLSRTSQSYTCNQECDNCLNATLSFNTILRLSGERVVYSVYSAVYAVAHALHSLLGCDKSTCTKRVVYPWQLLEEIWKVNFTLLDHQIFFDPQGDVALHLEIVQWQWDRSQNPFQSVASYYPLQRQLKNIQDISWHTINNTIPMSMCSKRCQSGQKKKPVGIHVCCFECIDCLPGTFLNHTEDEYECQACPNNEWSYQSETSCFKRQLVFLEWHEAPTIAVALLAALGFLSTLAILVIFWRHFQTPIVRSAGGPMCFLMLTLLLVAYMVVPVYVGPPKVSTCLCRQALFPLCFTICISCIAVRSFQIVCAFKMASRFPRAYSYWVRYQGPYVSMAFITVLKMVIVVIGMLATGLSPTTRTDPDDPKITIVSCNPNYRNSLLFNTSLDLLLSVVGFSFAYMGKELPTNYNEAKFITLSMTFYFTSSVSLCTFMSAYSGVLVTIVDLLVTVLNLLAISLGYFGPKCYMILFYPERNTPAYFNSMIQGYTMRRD
Sequence of hT1R2/T1R3mosaicC (Q925D8 with tags, fused parts or gaps with the stated changes limits assumed): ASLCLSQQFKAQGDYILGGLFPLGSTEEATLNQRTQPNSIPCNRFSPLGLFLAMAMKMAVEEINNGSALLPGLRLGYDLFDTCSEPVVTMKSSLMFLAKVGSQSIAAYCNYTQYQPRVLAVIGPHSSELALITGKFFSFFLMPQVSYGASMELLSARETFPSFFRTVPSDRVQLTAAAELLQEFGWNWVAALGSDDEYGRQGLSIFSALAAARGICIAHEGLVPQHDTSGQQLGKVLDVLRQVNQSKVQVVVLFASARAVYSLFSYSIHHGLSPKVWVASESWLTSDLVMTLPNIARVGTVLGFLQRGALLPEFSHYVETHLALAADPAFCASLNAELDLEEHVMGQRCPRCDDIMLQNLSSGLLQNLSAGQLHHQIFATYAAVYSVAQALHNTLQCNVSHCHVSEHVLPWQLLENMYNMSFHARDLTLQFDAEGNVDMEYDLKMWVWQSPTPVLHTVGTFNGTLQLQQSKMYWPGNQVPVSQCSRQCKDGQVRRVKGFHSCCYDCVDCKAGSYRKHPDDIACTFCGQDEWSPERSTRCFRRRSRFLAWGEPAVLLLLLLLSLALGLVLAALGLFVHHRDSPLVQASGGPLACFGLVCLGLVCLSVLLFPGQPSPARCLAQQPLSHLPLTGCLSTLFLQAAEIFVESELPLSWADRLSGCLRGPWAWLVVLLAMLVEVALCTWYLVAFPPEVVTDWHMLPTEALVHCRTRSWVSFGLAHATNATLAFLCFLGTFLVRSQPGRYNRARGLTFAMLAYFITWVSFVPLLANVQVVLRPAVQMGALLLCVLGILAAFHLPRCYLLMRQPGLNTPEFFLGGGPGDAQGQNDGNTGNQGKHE
Experimental: The HEK293E cells maintained by using the DMEM/Ham's F-12 medium (Nakarai Tesque) containing 10% fetal bovine serum ([…]) and 1% Pen Strep (GIBCO) were washed with D-PBS(−) (Nakarai Tesque), and collected from the flask by using 0.25% Trypsin EDTA (GIBCO). The cells were centrifuged (1,200 rpm, 3 minutes), and after the supernatant was removed, suspended in 5% FBS DMEM/Ham's F-12 at a density of 0.75×10^7 cell/ml. This suspension (10 ml) was put into a […] (IWAKI), and culture was performed overnight (37° C., 5% CO2). On the next day, the medium was exchanged with Opti-MEM (30 ml, Invitrogen, Life Technologies), a sweet taste receptor gene mixture (Gα15-trans48LD gene, various kinds of T1R2 chimeric genes, and various kinds of T1R3 chimeric genes, 63.8 μg in total) prepared by using Opti-MEM and Lipofectamin 2000 (Invitrogen, Life Technologies) was slowly added to the cell suspension, and incubation was performed (37° C., 5% CO2) for 6 hours to attain gene transfer.
After the gene transfer, the cells were washed with D-PBS(−), then removed from the flask by using 0.25% Trypsin EDTA (GIBCO), and collected. After the cell number was counted, the cells were suspended in the 5% FBS DMEM medium (2.78 mM glucose, GIBCO) at a density of 0.5×10^6 cell/ml. This cell suspension was put into wells of D-Lysine coat 96-well plate (BD bioscience) in such a volume that the cell count is 7.0×10^4 cells/well, and the cells were cultured overnight.
After the culture, all the medium of the 96 wells were discarded. 200 μl of the staining solution for measurement of intracellular calcium ion′ Calcium Assay Kit Express (Molecular Device), diluted 80 times with an assay buffer (20 mM HEPES, 146 mM NaCl, 1 mM MgSO4, 1.39 mM glucose, 1 mM CaC12, 2.5 mM Probenecid, 0.05% bovine serum albumin) was added to each well, and the plate was left standing at 37° C. for 30 minutes and at room temperature for 45 minutes to perform staining. After the staining, 50 μl of a solution of stimulant (sweet taste substance) prepared with the assay buffer was added to each well, and the fluorescence value was measured for 120 seconds after the stimulation by using FDSSμEELL (Hamamatsu Photonics). By measuring the fluorescence value (Ex. 480 nm, Em. 540 nm) before and after the stimulation, the change of the intracellular free calcium ion concentration caused by addition of the stimulant via a sweet taste receptor was quantitatively investigated. The measurement and analysis of the fluorescence value was performed by using the software attached to FDSSμEELL (FDSS7000EX), and ΔF/F value was calculated in accordance with the following equation, and used for the evaluation. ΔF/F=(Maximum fluorescence value after stimulation−Minimum fluorescence value after stimulation)/(Fluorescence value before stimulation)
Furthermore, by using the ΔF/F values obtained when each sweet taste substance was added, the S/N ratio was calculated. Specifically, the S/N value was calculated by using the minimum value of ΔF/F obtained when each substance was added at various concentrations as noise (N) value, and the similarly obtained maximum value of ΔF/F as the signal (S) value, and used as an index for sensitivity of the measurement of the activity of each receptor. That is, a higher S/N value means a higher sensitivity for detection of an interaction of a sweet taste receptor and a test substance, which makes it easier to detect stimulation with a sweet taste substance or sweet taste-regulating substance of a lower concentration.
The sweet taste substances used as the stimulating substance are acesulfame potassium (Tokyo Kasei Kogyo), sodium saccharin (WAKO), sucralose (SIGMA), sucrose (WAKO), and neotame (SIGMA), as well as aspartame, advantame, and SC-45647 ([3-[(S)-1-phenylethyl]-2-(4-cyanophenyl)guanidino]acetic acid, which were all synthesized in-house.

SMILES | S/N
COC(=O)[C@H](Cc1ccccc1)NC(=O)[C@H](CC(=O)O)NCCC(C)(C)C [Neotame, neotame] | 7.1
COC(=O)[C@H](Cc1ccccc1)NC(=O)[C@H](CC(=O)O)NCCCc1ccc(OC)c(O)c1 [Advantame, advantame] | 7.8
OC[C@H]1O[C@@](CO)(O[C@H]2O[C@H](CO)[C@@H](O)[C@H](O)[C@H]2O)[C@@H](O)[C@@H]1O [Sucrose, sucrose] | 3.4
COC(=O)[C@H](Cc1ccccc1)NC(=O)[C@@H](N)CC(=O)O [Aspartame, aspartame] (HELM PEPTIDE1{D.F.[CO[*:1]]}$$$$V2.0) | 4.5
O=C1NS(=O)(=O)c2ccccc21.[Na] [Saccharin Na, sodium saccharin] | 3.6
C[C@H](NC(=Nc1ccc(C#N)cc1)NCC(=O)O)c1ccccc1 [SC-45647, [3-[(S)-1-phenylethyl]-2-(4-cyanophenyl)guanidino]acetic acid] | 5.4
OC[C@H]1O[C@H](O[C@]2(CCl)O[C@H](CCl)[C@@H](O)[C@@H]2O)[C@H](O)[C@@H](O)[C@H]1Cl [Sucralose, sucralose] | 5.7
COc1ccc(CCC(=O)c2c(O)cc(O[C@@H]3O[C@H](CO)[C@@H](O)[C@H](O)[C@H]3O[C@@H]3O[C@@H](C)[C@H](O)[C@@H](O)[C@H]3O)cc2O)cc1O [NHDC, neohesperidin dihydrochalcone] | 3.8
CC1=CC(=O)NS(=O)(=O)O1 [Acesulfame K, acesulfame potassium] | 3.2
